Paper PMC11550483 (2024)

Each molecule was assayed against SARS2 M^pro (Severe acute respiratory syndrome coronavirus 2, UniProt P0DTD1, P3395H).
Format: biochemical, SARS-CoV-2

Compound	% inhibition (20 µM) biochemical [%]
O=C(CCCN1C(=O)/C(=C\c2ccco2)SC1=S)Nc1cc(Cl)ccc1O [MWAC-0000351, Oc1ccc(Cl)cc1NC(=O)CCCN2C(=S)S\C(=C\c3occc3)\C2=O]	2.86
O=Cc1ccccc1OCc1ccc2c(c1)OCO2 [MWAC-0001842, O=Cc1ccccc1OCc2ccc3OCOc3c2]	11
Cc1ccc(/C=C/C(=O)Nc2ccccc2Br)o1 [MWAC-0001759, Cc1oc(\C=C\C(=O)Nc2ccccc2Br)cc1]	15
Cc1nn(CC(=O)NCc2ccc3c(c2)OCO3)c(=O)c2c1cnn2C(C)(C)C [MWAC-0000539, CC1=NN(CC(=O)NCc2ccc3OCOc3c2)C(=O)c4c1cnn4C(C)(C)C]	19
O=C(Nc1ccc(Cl)cc1)N1CCc2ccccc21 [MWAC-0001717, Clc1ccc(NC(=O)N2CCc3ccccc23)cc1]	6
COc1ccc(C2=NN3C(C2)c2ccccc2OC32C(=O)Nc3ccccc32)cc1OC (stereo not drawn) [MWAC-0001819, COc1ccc(cc1OC)C2=NN3C(C2)c4ccccc4OC35C(=O)Nc6ccccc56]	0.611
N#C/C(=C\c1c[nH]c2ccccc12)C(=O)NC1CC1 [MWAC-0001828, O=C(NC1CC1)\C(=C\c2c[nH]c3ccccc23)\C#N]	11
CCOc1ccccc1C1CC(c2ccccc2)Nc2ncnn21 (stereo not drawn) [MWAC-0001745, CCOc1ccccc1C2CC(Nc3ncnn23)c4ccccc4]	5.37
CCCCOC(=O)c1c(C)oc2ccc(NS(=O)(=O)c3ccc(OC)cc3)cc12 [MWAC-0001742, CCCCOC(=O)c1c(C)oc2ccc(NS(=O)(=O)c3ccc(OC)cc3)cc12]	11
O=C(Nc1nccs1)c1ccc(F)cc1[N+](=O)[O-] [MWAC-0001876, [O-][N+](=O)c1cc(F)ccc1C(=O)Nc2nccs2]	0
O=C(CCl)NC(c1ccccc1)c1ccc(Cl)cc1 (stereo not drawn) [MWAC-0001861, ClCC(=O)NC(c1ccccc1)c2ccc(Cl)cc2]	67
COc1cc(OC)cc(C(=O)Nc2ccc(OC(C)C)cc2)c1 [MWAC-0001801, COc1cc(OC)cc(c1)C(=O)Nc2ccc(OC(C)C)cc2]	5
CC1=C(C(=O)OC(C)C)C(c2ccc(F)cc2)C2=C(CC(c3cccs3)CC2=O)N1 (stereo not drawn) [MWAC-0001729, CC(C)OC(=O)C1=C(C)NC2=C(C1c3ccc(F)cc3)C(=O)CC(C2)c4cccs4]	0
O=C1N(Cc2ccccc2)c2ccccc2C12NNc1ccccc1O2 (stereo not drawn) [MWAC-0001855, O=C1N(Cc2ccccc2)c3ccccc3C14NNc5ccccc5O4]	2.76
CCc1cccc2c(/C=C3\C(=O)Nc4ccccc43)c[nH]c12 [MWAC-0001851, CCc1cccc2c(\C=C\3/C(=O)Nc4ccccc34)c[nH]c12]	2.36
C=CCN1C(=O)C(O)(CC(=O)c2cccc(OC)c2)c2cc(Br)ccc21 (stereo not drawn) [MWAC-0001778, COc1cccc(c1)C(=O)CC2(O)C(=O)N(CC=C)c3ccc(Br)cc23]	2.82
CCOC(=O)c1sc(NC(=O)c2sccc2C)cc1C [MWAC-0001852, CCOC(=O)c1sc(NC(=O)c2sccc2C)cc1C]	10
CN1C(=O)C(O)(CC(=O)c2ccco2)c2cc(Cl)ccc21 (stereo not drawn) [MWAC-0001773, CN1C(=O)C(O)(CC(=O)c2occc2)c3cc(Cl)ccc13]	0.63
CCOc1ccc(/C=C2\SC(Nc3ccccc3O)=NC2=O)cc1 [MWAC-0001811, CCOc1ccc(\C=C\2/SC(=NC2=O)Nc3ccccc3O)cc1]	5.42
O=C(C[S+]([O-])c1ccc(C(F)(F)F)cc1[N+](=O)[O-])OCc1ccccc1 (stereo not drawn) [MWAC-0001780, [O-][N+](=O)c1cc(ccc1S(=O)CC(=O)OCc2ccccc2)C(F)(F)F]	4

Compound	% inhibition (20 µM) biochemical [%]
CCOc1ccc2nc(SC3CC(=O)N(c4ccccc4C(F)(F)F)C3=O)sc2c1 (stereo not drawn) [MWAC-0001714, CCOc1ccc2nc(SC3CC(=O)N(C3=O)c4ccccc4C(F)(F)F)sc2c1]	6
Cc1cc(C)c2oc(-c3ccc(C)c(N)c3)nc2c1 [MWAC-0001715, Cc1cc(C)c2oc(nc2c1)c3ccc(C)c(N)c3]	0
NC(=O)c1ccccc1NC(=O)/C=C/C(=O)O [MWAC-0001765, NC(=O)c1ccccc1NC(=O)\C=C\C(=O)O]	6.4
CC(=O)Nc1cccc(-c2nc3cc(Cl)ccc3o2)c1 [MWAC-0001758, CC(=O)Nc1cccc(c1)c2oc3ccc(Cl)cc3n2]	14
COc1ccc(CC(=O)N2CCC3(CC2)NC(=O)c2cc(Br)ccc2N3)cc1 [MWAC-0001841, COc1ccc(CC(=O)N2CCC3(CC2)NC(=O)c4cc(Br)ccc4N3)cc1]	0
CCc1ccc(C2CC(c3ccc(OC)c(OC)c3)=NN2C(C)=O)cc1 (stereo not drawn) [MWAC-0001733, CCc1ccc(cc1)C2CC(=NN2C(=O)C)c3ccc(OC)c(OC)c3]	7
COc1ccc(C(=O)Nc2ccccc2N)cc1 [MWAC-0001806, COc1ccc(cc1)C(=O)Nc2ccccc2N]	1
CC1=CC(C)(C)N2C(=O)C(=O)c3cc(OC(=O)c4cccc(F)c4)cc1c32 [MWAC-0001768, CC1=CC(C)(C)N2C(=O)C(=O)c3cc(OC(=O)c4cccc(F)c4)cc1c23]	2.41
Cc1cccc2c1NC(=O)/C2=C\C(=O)c1cccs1 [MWAC-0001756, Cc1cccc2\C(=C\C(=O)c3cccs3)\C(=O)Nc12]	13
CCOC(=O)c1ccc(NC(=O)CSc2nnc(-c3ccccc3OCC)o2)cc1 [MWAC-0001774, CCOC(=O)c1ccc(NC(=O)CSc2oc(nn2)c3ccccc3OCC)cc1]	5.5
CCOC(=O)c1[nH]c(C)c(C(=O)Nc2ccccc2SC)c1C [MWAC-0001737, CCOC(=O)c1[nH]c(C)c(C(=O)Nc2ccccc2SC)c1C]	3.56
CCc1ccc(C(=O)Cn2c(C)nc([N+](=O)[O-])c2Br)cc1 [MWAC-0001880, CCc1ccc(cc1)C(=O)Cn2c(C)nc(c2Br)[N+](=O)[O-]]	0
Nc1c(C(=O)c2ccccc2)sc2nc3c(cc12)CCC3 [MWAC-0001815, Nc1c(sc2nc3CCCc3cc12)C(=O)c4ccccc4]	27
Cc1cc(C(=O)COn2nnc3ccccc32)c(C)n1-c1ccc2c(c1)OCO2 [MWAC-0001845, Cc1cc(C(=O)COn2nnc3ccccc23)c(C)n1c4ccc5OCOc5c4]	20
COCCNc1nc2cc(C)ccc2[nH]1 [MWAC-0001822, COCCNc1nc2cc(C)ccc2[nH]1]	3
O=C(c1cccnc1)N1CCN(c2ccc(Cl)c(Cl)c2)CC1 [MWAC-0001776, Clc1ccc(cc1Cl)N2CCN(CC2)C(=O)c3cccnc3]	47
COc1cccc(Nc2ccc3ccccc3c2)c1 [MWAC-0001865, COc1cccc(Nc2ccc3ccccc3c2)c1]	0
CCOC(=O)N1CCN(c2nncc(-c3ccc4ccccc4c3)n2)CC1 [MWAC-0001757, CCOC(=O)N1CCN(CC1)c2nncc(n2)c3ccc4ccccc4c3]	38
CCOC(=O)CS(=O)(=O)c1ccc(C(=O)N2CCN(C(=O)c3ccco3)CC2)cc1[N+](=O)[O-] [MWAC-0001736, CCOC(=O)CS(=O)(=O)c1ccc(cc1[N+](=O)[O-])C(=O)N2CCN(CC2)C(=O)c3occc3]	14
